Results reported in patent publication US20240376099A1, “COMPOUNDS AND COMPOSITIONS AS INHIBITORS OF ENDOSOMAL TOLL-LIKE RECEPTORS” (Novartis AG, priority 2016, published 2024).

Each compound was assayed against T1, TLR7 (Homo sapiens, UniProt Q9NYK1) (assay: huPBMC TLR7 Antagonist IFNα Assay). Settings: human PBMCs stimulated with ssRNA40 10 μg/mL (DOTAP), 14-16 hrs; IFNα2b AlphaLISA read-out.
T1 construct: Fresh blood was collected from normal human donors; endogenous in cells; host or cells: human PBMCs from fresh donor blood
T1 sequence (Q9NYK1 27-1049): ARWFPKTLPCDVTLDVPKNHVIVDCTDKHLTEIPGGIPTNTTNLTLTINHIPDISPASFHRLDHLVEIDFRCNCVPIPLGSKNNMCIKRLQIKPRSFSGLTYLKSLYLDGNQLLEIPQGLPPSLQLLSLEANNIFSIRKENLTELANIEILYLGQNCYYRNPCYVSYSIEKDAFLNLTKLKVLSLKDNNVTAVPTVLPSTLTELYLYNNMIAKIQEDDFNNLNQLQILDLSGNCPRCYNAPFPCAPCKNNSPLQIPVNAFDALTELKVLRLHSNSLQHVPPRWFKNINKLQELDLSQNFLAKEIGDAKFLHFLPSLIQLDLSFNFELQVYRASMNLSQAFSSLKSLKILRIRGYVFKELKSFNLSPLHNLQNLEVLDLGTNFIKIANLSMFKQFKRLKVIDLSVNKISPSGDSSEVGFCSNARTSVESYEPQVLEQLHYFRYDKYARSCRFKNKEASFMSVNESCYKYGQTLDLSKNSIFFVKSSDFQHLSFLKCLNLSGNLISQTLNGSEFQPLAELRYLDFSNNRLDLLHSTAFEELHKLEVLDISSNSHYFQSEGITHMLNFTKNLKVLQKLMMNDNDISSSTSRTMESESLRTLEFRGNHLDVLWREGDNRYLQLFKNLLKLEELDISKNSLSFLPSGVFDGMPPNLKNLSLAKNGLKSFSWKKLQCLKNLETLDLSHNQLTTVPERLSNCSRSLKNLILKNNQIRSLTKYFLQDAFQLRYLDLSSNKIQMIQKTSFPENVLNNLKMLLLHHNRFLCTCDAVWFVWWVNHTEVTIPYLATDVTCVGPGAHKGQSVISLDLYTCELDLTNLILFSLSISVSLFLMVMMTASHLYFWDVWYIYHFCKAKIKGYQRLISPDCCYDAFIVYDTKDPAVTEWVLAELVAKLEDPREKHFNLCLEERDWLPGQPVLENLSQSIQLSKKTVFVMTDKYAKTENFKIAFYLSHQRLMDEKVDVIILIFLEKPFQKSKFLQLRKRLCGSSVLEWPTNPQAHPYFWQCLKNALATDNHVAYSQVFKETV
Assay type: cell-based
Procedure, shortened: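 Human PBMCs from fresh donor blood (150,000 cells/well) stimulated 14–16 h at 37 °C with DOTAP-complexed ssRNA40 (final 1 μg/ml for TLR8, 10 μg/mL for TLR7) or ODN2216 (final 0.3 μM, TLR9), 0.25% DMSO, ten-point 1/3 compound dilutions. Supernatant IL-6 read by HTRF (TLR8); IFNα by IFNα2b AlphaLISA (TLR7/TLR9).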

Going from `Cn1ncc2c(N3CCc4c(cnn4CC45CCC(N)(CC4)CC5)C3)nc(N)nc21` [compound 11, 4-(1-((4-aminobicyclo[2.2.2]octan-1-yl)methyl)-6,7-dihydro-1H-pyrazolo[4,3-c]pyridin-5(4H)-yl)-1-methyl-1H-pyrazolo[3,4-d]pyrimidin-6-amine] to `Cn1ncc2c(N3CCc4nn(CC56CCC(N)(CC5)CC6)cc4C3)nc(N)nc21` [compound 12, 4-(2-((4-aminobicyclo[2.2.2]octan-1-yl)methyl)-6,7-dihydro-2H-pyrazolo[4,3-c]pyridin-5(4H)-yl)-1-methyl-1H-pyrazolo[3,4-d]pyrimidin-6-amine], the IC50 rises from 0.318 µM to 0.841 µM (2.6-fold).

Compared with `Cc1nn(CC23CCC(N)(CC2)CC3)c2c1CN(c1nc(N)nc3c1cnn3C)CC2` [compound 13, 4-(1-((4-aminobicyclo[2.2.2]octan-1-yl)methyl)-3-methyl-6,7-dihydro-1H-pyrazolo[4,3-c]pyridin-5(4H)-yl)-1-methyl-1H-pyrazolo[3,4-d]pyrimidin-6-amine], `Cc1c2c(nn1CC13CCC(N)(CC1)CC3)CCN(c1nc(N)nc3c1cnn3C)C2` [compound 14, 4-(2-((4-aminobicyclo[2.2.2]octan-1-yl)methyl)-3-methyl-6,7-dihydro-2H-pyrazolo[4,3-c]pyridin-5(4H)-yl)-1-methyl-1H-pyrazolo[3,4-d]pyrimidin-6-amine] is 5.7-fold higher in IC50: 0.042 µM for the first, 0.241 µM for the second. The first is the more potent here.

Going from `Cc1nn(CC23CCC(N)(CC2)CC3)c2c1CN(c1nc(Cl)nc3cnn(C)c13)CC2` [compound 15, 4-((5-(5-chloro-1-methyl-1H-pyrazolo[4,3-d]pyrimidin-7-yl)-3-mehtyl-4,5,6,7-tetrahydro-1H-pyrazolo[4,3-c]pyridin-1-yl)methyl)bicyclo[2.2.2]octan-1-amine] to `Cc1nc(N2CCc3c(c(C)nn3CC34CCC(N5CCCC5)(CC3)CC4)C2)c2cnn(C)c2n1` [compound 16, 1,6-dimethyl-4-(3-methyl-1-((4-(pyrrolidin-1-yl)bicyclo[2.2.2]octan-1-yl)methyl)-6,7-dihydro-1H-pyrazolo[4,3-c]pyridin-5(4H)-yl)-1H-pyrazolo[3,4-d]pyrimidine], the IC50 falls from 0.288 µM to 0.025 µM (12-fold).

Going from `Cc1nc(N2CCc3c(c(C)nn3CC34CCC(N5CCCC5)(CC3)CC4)C2)c2c(n1)c(C)nn2C` [compound 17, 1,3,5-trimethyl-7-(3-methyl-1-((4-(pyrrolidin-1-yl)bicyclo[2.2.2]octan-1-yl)methyl)-6,7-dihydro-1H-pyrazolo[4,3-c]pyridin-5(4H)-yl)-1H-pyrazolo[4,3-d]pyrimidine] to `Cc1nc(N2CCc3c(c(C)nn3CC34CCC(N5CCOCC5)(CC3)CC4)C2)c2c(n1)c(C)nn2C` [compound 25, 4-(4-((3-methyl-5-(1,3,5-trimethyl-1H-pyrazolo[4,3-d]pyrimidin-7-yl)-4,5,6,7-tetrahydro-1H-pyrazolo[4,3-c]pyridin-1-yl)methyl)bicyclo[2.2.2]octan-1-yl)morpholine], the IC50 rises from 0.258 µM to 0.565 µM (2.2-fold). The first is the more potent here.

Going from `COCCNC12CCC(Cn3nc(C)c4c3CCN(c3nc(C)nc5c(C)nn(C)c35)C4)(CC1)CC2` [compound 18, N-(2-methoxyethyl)-4-((3-methyl-5-(1,3,5-trimethyl-1H-pyrazolo[4,3-d]pyrimidin-7-yl)-4,5,6,7-tetrahydro-1H-pyrazolo[4,3-c]pyridin-1-yl)methyl)bicyclo[2.2.2]octan-1-amine] to `CCNCC(=O)NC12CCC(Cn3nc(C)c4c3CCN(c3nc(C)nc5c(C)nn(C)c35)C4)(CC1)CC2` [compound 22, 2-(ethylamino)-N-(4-((3-methyl-5-(1,3,5-trimethyl-1H-pyrazolo[4,3-c]pyrimidin-7-yl)-4,5,6,7-tetrahydro-1H-pyrazolo[4,3-c]pyridin-1-yl)methyl)bicyclo[2.2.2]octan-1-yl)acetamide], the IC50 falls from 0.245 µM to 0.033 µM (7.4-fold).

Going from `Cc1nc(N2CCc3c(c(C)nn3CC34CCC(N5CCOCC5)(CC3)CC4)C2)c2cnn(C)c2n1` [compound 19, 4-(4-((5-(1,6-dimethyl-1H-pyrazolo[3,4-d]pyrimidin-4-yl)-3-methyl-4,5,6,7-tetrahydro-1H-pyrazolo[4,3-c]pyridin-1-yl)methyl)bicyclo[2.2.2]octan-1-yl)morpholine] to `Cc1nc(N2CCc3c(c(C)nn3CC34CCC(N5CCOCC5)(CC3)CC4)C2)c2cn[nH]c2n1` [compound 21, 4-(4-((3-methyl-5-(6-methyl-1H-pyrazolo[3,4-d]pyrimidin-4-yl)-4,5,6,7-tetrahydro-1H-pyrazolo[4,3-c]pyridin-1-yl)methyl)bicyclo[2.2.2]octan-1-yl)morpholine], the IC50 falls from 0.055 µM to 0.024 µM (2.3-fold). The second is the more potent here.

First: CCNCC(=O)NC12CCC(Cn3nc(C)c4c3CCN(c3nc(C)nc5[nH]ncc35)C4)(CC1)CC2 [compound 20, 2-(ethylamino)-N-(4-((3-methyl-5-(6-methyl-1H-pyrazolo[3,4-d]pyrimidin-4-yl)-4,5,6,7-tetrahydro-1H-pyrazolo[4,3-c]pyridin-1-yl)methyl)bicyclo[2.2.2]octan-1-yl)acetamide]
Second: Cc1nc(N2CCc3c(c(C)nn3CC34CCC(N5CCCC5)(CC3)CC4)C2)c2cn[nH]c2n1 [compound 30, 6-methyl-4-(3-methyl-1-((4-(pyrrolidin-1-yl)bicyclo[2.2.2]octan-1-yl)methyl)-6,7-dihydro-1H-pyrazolo[4,3-c]pyridin-5(4H)-yl)-1H-pyrazolo[3,4-d]pyrimidine]
The IC50 of the first is 2.5-fold higher: 0.025 µM for the first, 0.01 µM for the second.

Compared with `Cc1nc(N2CCc3c(c(C)nn3CC34CCC(NCC5COC5)(CC3)CC4)C2)c2c(n1)c(C)nn2C` [compound 23, 4-((3-methyl-5-(1,3,5-trimethyl-1H-pyrazolo[4,3-c]pyrimidin-7-yl)-4,5,6,7-tetrahydro-1H-pyrazolo[4,3-c]pyridin-1-yl)methyl)-N-(oxetan-3-ylmethyl)bicyclo[2.2.2]octan-1-amine], `Cc1nc(N2CCc3c(c(C)nn3CC34CCC(NC5CCC5)(CC3)CC4)C2)c2c(n1)c(C)nn2C` [compound 27, N-cyclobutyl-4-((3-methyl-5-(1,3,5-trimethyl-1H-pyrazolo[4,3-d]pyrimidin-7-yl)-4,5,6,7-tetrahydro-1H-pyrazolo[4,3-c]pyridin-1-yl)methyl)bicyclo[2.2.2]octan-1-amine] is 44-fold lower in IC50: 0.666 µM for the first, 0.015 µM for the second.

First: Cc1nc(N2CCc3c(c(C)nn3CC34CCC(NC(=O)CCN(C)C)(CC3)CC4)C2)c2c(n1)c(C)nn2C [compound 24, 3-(dimethyalmino)-N-(4-((3-methyl-5-(1,3,5-trimethyl-1H-pyrazolo[4,3-d]pyrimidin-7-yl)-4,5,6,7-tetrahydro-1H-pyrazolo[4,3-c]pyridin-1-yl)methyl)bicyclo[2.2.2]octan-1-yl)propanamide]
Second: Cc1nc(N2CCc3c(c(C)nn3CC34CCC(N(C5CCC5)C5CCC5)(CC3)CC4)C2)c2c(n1)c(C)nn2C [compound 28, N,N-dicyclobutyl-4-((3-methyl-5-(1,3,5-trimethyl-1H-pyrazolo[4,3-d]pyrimidin-7-yl)-4,5,6,7-tetrahydro-1H-pyrazolo[4,3-c]pyridin-1-yl)methyl)bicyclo[2.2.2]octan-1-amine]
The IC50 of the first is 4.2-fold lower: 0.201 µM for the first, 0.84 µM for the second. The first is the more potent here.

Work on `Cc1nc(N2CCc3c(c(C)nn3CC34CCC(N5CCCCC5)(CC3)CC4)C2)c2cn[nH]c2n1` [compound 29, 6-methyl-4-(3-methyl-1-((4-(piperidin-1-yl)bicyclo[2.2.2]octan-1-yl)methyl)-6,7-dihydro-1H-pyrazolo[4,3-c]pyridin-5(4H)-yl)-1H-pyrazolo[3,4-d]pyrimidine] yielded an IC50 of 0.073 µM.
